Reference: ChEMBL document CHEMBL4765450, “The components and activities analysis of a novel anticoagulant candidate dHG-5” (Eur J Med Chem, 2020)
The source made the active and inactive calls. The calls are words filed in the database; no cut-off is given here.

Tests used:
[1] = system: Rattus norvegicus; experiment: Antithrombotic activity in thromboplastin and stasis-induced Sprague-Dawley rat deep venous thrombosis model assessed as reduction in venous thrombosis administered subcutaneously 1 hr prior to thromboplastin addition for 20 secs followed by establishment of stasis for 20 mins; assay type: functional; details: time 80.33 min
[2] = MRT (0 to 8 hrs) in Kunming mouse at 5.11 mg/kg, sc; assay type: ADME, organism-based; details: in vivo
[3] = MRT (0 to infinity) in Kunming mouse at 1.7 mg/kg, sc; assay type: ADME, organism-based; details: in vivo
[4] = target: Coagulation factor X (Homo sapiens) (UniProt P00742); experiment: Inhibition of factor 10a (unknown origin) at IC90 preincubated for 1 min followed by chromogenic substrate addition and measured for 2 mins in presence of AT-III relative to control; details: time 3.0 min
Chain of Coagulation factor X (Homo sapiens) (P00742 41-179 limits assumed): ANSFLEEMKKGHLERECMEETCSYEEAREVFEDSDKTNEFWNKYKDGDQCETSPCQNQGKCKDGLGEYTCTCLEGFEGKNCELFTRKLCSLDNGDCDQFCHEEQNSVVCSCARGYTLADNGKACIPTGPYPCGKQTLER
Chain of Coagulation factor X (Homo sapiens) (P00742 235-488 limits assumed): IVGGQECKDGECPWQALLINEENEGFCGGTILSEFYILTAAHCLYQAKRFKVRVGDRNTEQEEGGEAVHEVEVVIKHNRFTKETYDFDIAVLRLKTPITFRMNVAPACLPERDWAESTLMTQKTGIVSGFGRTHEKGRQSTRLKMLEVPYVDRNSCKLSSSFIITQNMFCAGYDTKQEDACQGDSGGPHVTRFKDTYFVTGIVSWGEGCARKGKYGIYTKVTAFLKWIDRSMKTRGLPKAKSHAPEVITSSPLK

[5] = system: Mus musculus; experiment: Anticoagulation activity in Kunming mouse assessed as APTT-prolonging effect by measuring time for maximum effect at 15.3 mg/kg, sc measured after 0.5 to 8 hrs by APTT reagent based assay; assay type: functional; details: time 0.5-8 hrs
[6] = Tmax in Kunming mouse at 15.3 mg/kg, sc; assay type: ADME, organism-based; details: in vivo
[7] = target: Coagulation factor X (Homo sapiens) (UniProt P00742); experiment: Inhibition of factor 10a (unknown origin) at IC50 preincubated for 1 min followed by chromogenic substrate addition and measured for 2 mins in presence of AT-III; details: time 3.0 min
[8] = target: Coagulation factor X (Homo sapiens) (UniProt P00742); experiment: Inhibition of factor 10a (unknown origin) at IC50 preincubated for 1 min followed by chromogenic substrate addition and measured for 2 mins; details: time 3.0 min
[9] = Half life in Kunming mouse at 1.7 mg/kg, sc; assay type: ADME, organism-based; details: in vivo
[10] = target: T1, Coagulation factor XII (Homo sapiens) (UniProt P00748); experiment: Inhibition of factor 12a (unknown origin) at IC50 using kallikrein chromogenic substrate preincubated for 1 min followed by chromogenic substrate addition and measured for 2 mins in presence of AT-III; details: time 3.0 min
T1 sequence (whole entry): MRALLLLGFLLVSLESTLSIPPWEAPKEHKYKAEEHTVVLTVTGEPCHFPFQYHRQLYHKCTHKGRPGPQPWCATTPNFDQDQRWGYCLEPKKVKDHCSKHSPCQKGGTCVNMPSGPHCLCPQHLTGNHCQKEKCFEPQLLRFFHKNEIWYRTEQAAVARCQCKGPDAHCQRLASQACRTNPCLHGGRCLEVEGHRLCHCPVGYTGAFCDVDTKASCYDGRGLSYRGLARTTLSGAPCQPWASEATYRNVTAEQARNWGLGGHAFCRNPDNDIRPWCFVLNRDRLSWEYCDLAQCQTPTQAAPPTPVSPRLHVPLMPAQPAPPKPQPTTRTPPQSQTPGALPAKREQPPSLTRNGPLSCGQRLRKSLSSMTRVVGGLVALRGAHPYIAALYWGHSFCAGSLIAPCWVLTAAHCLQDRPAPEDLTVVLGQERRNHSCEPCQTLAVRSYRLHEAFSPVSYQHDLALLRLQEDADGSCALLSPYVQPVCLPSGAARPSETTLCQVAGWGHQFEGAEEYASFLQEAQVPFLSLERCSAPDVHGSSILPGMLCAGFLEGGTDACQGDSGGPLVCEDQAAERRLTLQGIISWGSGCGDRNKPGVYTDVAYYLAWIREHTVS

[11] = target: Coagulation factor XI (Homo sapiens) (UniProt P03951); experiment: Inhibition of factor 11a (unknown origin) at IC50 using S-2366 as substrate preincubated for 1 min followed by chromogenic substrate addition and measured for 2 mins in presence of AT-III; details: time 3.0 min
Chain of Coagulation factor XI (Homo sapiens) (P03951 19-387 limits assumed): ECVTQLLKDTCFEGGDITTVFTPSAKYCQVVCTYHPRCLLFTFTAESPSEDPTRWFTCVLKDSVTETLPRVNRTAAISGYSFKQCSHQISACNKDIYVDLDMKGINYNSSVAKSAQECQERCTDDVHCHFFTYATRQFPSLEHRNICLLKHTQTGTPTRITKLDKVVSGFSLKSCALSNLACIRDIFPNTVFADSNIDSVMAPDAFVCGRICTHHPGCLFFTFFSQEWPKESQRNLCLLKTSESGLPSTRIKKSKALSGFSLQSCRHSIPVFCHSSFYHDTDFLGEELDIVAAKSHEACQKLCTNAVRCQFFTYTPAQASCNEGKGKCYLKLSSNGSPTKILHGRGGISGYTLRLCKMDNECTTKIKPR
Chain of Coagulation factor XI (Homo sapiens) (P03951 388-625 limits assumed): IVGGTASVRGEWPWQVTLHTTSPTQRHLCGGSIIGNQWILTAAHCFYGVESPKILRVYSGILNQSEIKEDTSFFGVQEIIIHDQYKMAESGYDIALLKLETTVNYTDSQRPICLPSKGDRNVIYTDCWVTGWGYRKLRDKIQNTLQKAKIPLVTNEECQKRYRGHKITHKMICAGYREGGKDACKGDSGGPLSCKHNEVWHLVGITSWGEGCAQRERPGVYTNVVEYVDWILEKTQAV

[12] = MRT (0 to 8 hrs) in Kunming mouse at 1.7 mg/kg, sc; assay type: ADME, organism-based; details: in vivo
[13] = target: Prothrombin (Homo sapiens) (UniProt P00734); experiment: Inhibition of factor 2a (unknown origin) at IC90 preincubated for 1 min followed by chromogenic substrate addition and measured for 2 mins in presence of AT-III; details: time 3.0 min
[14] = Half life in Kunming mouse at 15.3 mg/kg, sc; assay type: ADME, organism-based; details: in vivo
[15] = target: Prothrombin (Homo sapiens) (UniProt P00734); experiment: Inhibition of factor 2a (unknown origin) at IC50 preincubated for 1 min followed by chromogenic substrate addition and measured for 2 mins in presence of AT-III; details: time 3.0 min
[16] = target: Coagulation factor IX/VIII (Homo sapiens, UniProt P00451+P00740); experiment: Inhibition of human citrated plasma iXase (factor 8a-factor 9a complex) preincubated for 2 mins followed by factor 10 addition and measured after 1 min by FXa chromogenic substrate SXa-11 based assay; assay type: protein-complex assay
Chain of Coagulation factor IX/VIII (P00451 20-759 limits assumed): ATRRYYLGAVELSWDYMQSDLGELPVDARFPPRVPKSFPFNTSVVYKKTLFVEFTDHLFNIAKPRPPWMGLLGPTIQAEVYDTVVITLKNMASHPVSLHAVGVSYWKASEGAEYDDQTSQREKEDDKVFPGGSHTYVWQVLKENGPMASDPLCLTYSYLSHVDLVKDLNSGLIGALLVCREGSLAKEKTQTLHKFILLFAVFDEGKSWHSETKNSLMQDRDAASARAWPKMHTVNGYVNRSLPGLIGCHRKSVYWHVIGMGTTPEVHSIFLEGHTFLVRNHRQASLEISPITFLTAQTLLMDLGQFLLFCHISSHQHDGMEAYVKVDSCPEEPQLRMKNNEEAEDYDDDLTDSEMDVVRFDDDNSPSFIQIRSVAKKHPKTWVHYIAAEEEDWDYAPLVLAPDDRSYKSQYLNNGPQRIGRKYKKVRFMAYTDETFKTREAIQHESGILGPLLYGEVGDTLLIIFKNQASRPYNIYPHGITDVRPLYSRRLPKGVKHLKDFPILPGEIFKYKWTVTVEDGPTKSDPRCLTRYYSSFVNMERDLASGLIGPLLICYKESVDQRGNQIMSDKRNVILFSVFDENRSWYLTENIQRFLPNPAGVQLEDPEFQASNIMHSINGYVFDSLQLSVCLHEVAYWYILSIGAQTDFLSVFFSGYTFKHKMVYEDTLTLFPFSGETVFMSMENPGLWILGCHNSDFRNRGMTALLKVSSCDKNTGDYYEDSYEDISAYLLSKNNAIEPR
Chain of Coagulation factor IX/VIII (P00451 1668-2351 limits assumed): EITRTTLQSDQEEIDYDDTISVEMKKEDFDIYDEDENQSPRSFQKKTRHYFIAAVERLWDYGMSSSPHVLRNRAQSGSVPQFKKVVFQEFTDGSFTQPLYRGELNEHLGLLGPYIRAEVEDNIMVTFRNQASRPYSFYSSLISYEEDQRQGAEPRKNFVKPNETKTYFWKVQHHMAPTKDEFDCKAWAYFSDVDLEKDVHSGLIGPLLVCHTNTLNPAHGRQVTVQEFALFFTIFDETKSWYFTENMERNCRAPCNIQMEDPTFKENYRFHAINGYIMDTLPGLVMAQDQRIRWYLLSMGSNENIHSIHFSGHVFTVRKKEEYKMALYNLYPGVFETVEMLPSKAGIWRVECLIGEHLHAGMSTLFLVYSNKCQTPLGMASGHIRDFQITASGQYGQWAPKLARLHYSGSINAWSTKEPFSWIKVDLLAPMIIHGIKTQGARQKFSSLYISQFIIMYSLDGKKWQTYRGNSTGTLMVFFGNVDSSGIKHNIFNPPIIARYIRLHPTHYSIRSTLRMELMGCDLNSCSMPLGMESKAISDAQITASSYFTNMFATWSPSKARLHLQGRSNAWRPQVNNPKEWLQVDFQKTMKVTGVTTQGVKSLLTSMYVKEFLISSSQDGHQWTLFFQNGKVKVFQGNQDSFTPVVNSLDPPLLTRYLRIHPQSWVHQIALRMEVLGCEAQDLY
Chain of Coagulation factor IX/VIII (P00740 47-191 limits assumed): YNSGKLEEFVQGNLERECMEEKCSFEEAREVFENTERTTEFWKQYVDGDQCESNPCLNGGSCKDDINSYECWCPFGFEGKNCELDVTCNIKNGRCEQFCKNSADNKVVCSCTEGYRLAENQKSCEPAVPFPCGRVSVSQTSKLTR
Chain of Coagulation factor IX/VIII (P00740 227-461 limits assumed): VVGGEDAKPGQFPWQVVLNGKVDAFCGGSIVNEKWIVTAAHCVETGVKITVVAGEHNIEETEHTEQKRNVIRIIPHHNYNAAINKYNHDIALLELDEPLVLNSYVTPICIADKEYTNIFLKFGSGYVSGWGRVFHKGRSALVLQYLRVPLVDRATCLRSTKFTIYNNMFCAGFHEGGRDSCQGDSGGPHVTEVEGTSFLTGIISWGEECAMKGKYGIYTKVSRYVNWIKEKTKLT

[17] = system: Plasma; experiment: Anticoagulation activity in HCII-deficient human plasma preincubated for 2 mins followed by APTT reagent and measured after 3 mins by coagulometric method; assay type: functional, cell-free; details: time 5.0 min
[18] = MRT (0 to infinity) in Kunming mouse at 5.11 mg/kg, sc; assay type: ADME, organism-based; details: in vivo
[19] = system: Plasma; experiment: Induction of platelet aggregation in rat wash platelet at plasma peak concentration of 10 times anti-thrombosis ED50 measured after 10 mins by light transmission aggregometry
[20] = target: Coagulation factor XI (Homo sapiens) (UniProt P03951); experiment: Inhibition of factor 11a (unknown origin) at IC50 using S-2366 as substrate preincubated for 1 min followed by chromogenic substrate addition and measured for 2 mins; details: time 3.0 min
[21] = target: Prothrombin (Homo sapiens) (UniProt P00734); experiment: Inhibition of factor 2a (unknown origin) at IC50 preincubated for 1 min followed by chromogenic substrate addition and measured for 2 mins; details: time 3.0 min
[22] = system: Plasma; experiment: Anticoagulation activity in AT-III-deficient human plasma preincubated for 2 mins followed by APTT reagent and measured after 3 mins by coagulometric method; assay type: functional, cell-free; details: time 5.0 min
[23] = target: T2, Coagulation factor VII (Homo sapiens) (UniProt P08709); experiment: Inhibition of factor 7a (unknown origin) at IC50 using pefachrome factor VIIa as substrate preincubated for 1 min followed by chromogenic substrate addition and measured for 2 mins; details: time 3.0 min
T2 sequence (whole entry): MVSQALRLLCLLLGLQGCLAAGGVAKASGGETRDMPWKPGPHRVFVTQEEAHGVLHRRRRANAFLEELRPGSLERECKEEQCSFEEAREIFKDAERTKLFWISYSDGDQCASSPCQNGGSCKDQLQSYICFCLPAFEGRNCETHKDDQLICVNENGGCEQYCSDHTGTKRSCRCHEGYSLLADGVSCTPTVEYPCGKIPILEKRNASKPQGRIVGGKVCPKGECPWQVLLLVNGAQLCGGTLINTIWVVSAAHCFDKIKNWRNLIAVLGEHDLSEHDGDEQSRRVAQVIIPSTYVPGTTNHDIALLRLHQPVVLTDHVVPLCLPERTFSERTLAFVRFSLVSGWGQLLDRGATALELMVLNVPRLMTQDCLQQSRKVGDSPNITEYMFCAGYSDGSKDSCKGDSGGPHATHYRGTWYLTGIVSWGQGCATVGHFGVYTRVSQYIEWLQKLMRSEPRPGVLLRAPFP

[24] = Toxicity in Kunming mouse tail bleeding model assessed as blood loss at 73.01 mg/kg, sc measured after 1 hr by UV-vis spectrophotometry; assay type: organism-based; details: in vivo
[25] = Half life in Kunming mouse at 5.11 mg/kg, sc; assay type: ADME, organism-based; details: in vivo
[26] = target: Coagulation factor IX (Homo sapiens, UniProt P00740); experiment: Inhibition of factor 9a (unknown origin) binding to immobilized biotinylated oHG-11 by biolayer interferometry
Chain of Coagulation factor IX (P00740 47-191 limits assumed): as the sequence (P00740 47-191 limits assumed) above
Chain of Coagulation factor IX (P00740 227-461 limits assumed): as the sequence (P00740 227-461 limits assumed) above

[27] = Tmax in Kunming mouse at 5.11 mg/kg, sc; assay type: ADME, organism-based; details: in vivo

CC(=O)N[C@H]1[C@H](O[C@H]2[C@H](O[C@@H]3O[C@@H](C)[C@@H](OS(=O)(=O)[O-])[C@@H](O)[C@@H]3OS(=O)(=O)O)[C@@H](O)[C@H](O[C@H]3[C@@H](NC(C)=O)[C@H](O[C@H]4[C@H](O[C@@H]5O[C@@H](C)[C@@H](OS(=O)(=O)[O-])[C@@H](O)[C@@H]5OS(=O)(=O)O)[C@@H](O)[C@H](O[C@H]5[C@@H](NC(C)=O)[C@H](O[C@H]6[C@H](O[C@@H]7O[C@@H](C)[C@@H](OS(=O)(=O)[O-])[C@@H](O)[C@@H]7OS(=O)(=O)O)[C@@H](O)[C@H](O[C@H]7[C@@H](NC(C)=O)[C@H](O[C@H]8[C@H](O[C@@H]9O[C@@H](C)[C@@H](OS(=O)(=O)[O-])[C@@H](O)[C@@H]9OS(=O)(=O)O)[C@@H](O)[C@H](O[C@H]9[C@@H](NC(C)=O)[C@H](O[C@@H]([C@H](O[C@@H]%10O[C@@H](C)[C@@H](OS(=O)(=O)[O-])[C@@H](O)[C@@H]%10OS(=O)(=O)O)[C@@H](O)CO)[C@H](O)C(=O)[O-])O[C@H](COS(=O)(=O)[O-])[C@@H]9OS(=O)(=O)[O-])O[C@@H]8C(=O)[O-])O[C@H](COS(=O)(=O)[O-])[C@@H]7OS(=O)(=O)[O-])O[C@@H]6C(=O)[O-])O[C@H](COS(=O)(=O)[O-])[C@@H]5OS(=O)(=O)[O-])O[C@@H]4C(=O)[O-])O[C@H](COS(=O)(=O)[O-])[C@@H]3OS(=O)(=O)[O-])O[C@@H]2C(=O)[O-])O[C@H](COS(=O)(=O)[O-])[C@H](OS(=O)(=O)[O-])[C@@H]1O[C@@H]1OC(C(=O)[O-])=C[C@H](O[C@@H]2O[C@@H](C)[C@@H](OS(=O)(=O)[O-])[C@@H](O)[C@@H]2OS(=O)(=O)O)[C@H]1O.[Na+].[Na+].[Na+].[Na+].[Na+].[Na+].[Na+].[Na+].[Na+].[Na+].[Na+].[Na+].[Na+].[Na+].[Na+].[Na+].[Na+].[Na+].[Na+].[Na+].[Na+].[Na+]
ED50 ([1]; sc, 1.339 h): 2.38 mg/kg
Activity [1]: Dose-dependent effect
MRT last [2]: 1.52 h
MRT inf [3]: 2.21 h
inhibition [4]: inactive
Emax [5]: 20.2 s
Tmax [6]: 0.75 h
inhibition [7]: inactive
inhibition [8]: inactive
half-life [9]: 1.09 h
inhibition [10]: inactive
inhibition [11]: inactive
MRT last [12]: 1.99 h
inhibition [13]: Active
half-life [14]: 0.564 h
inhibition [15]: inactive
IC50 [16]: 14 nM
Activity [17]: Active
MRT inf [18]: 1.52 h
Activity [19]: Not Active
inhibition [20]: inactive
inhibition [21]: inactive
Activity [22]: Active
inhibition (active/not active) [23]: inactive
Activity [24]: 139 µL
half-life [25]: 0.563 h
IC50 [26]: 430 nM
Tmax [27]: 0.75 h
